One series is described as follows: Boiling point (Table 1). The series is classed as physicochemical.
The nature of series [1]: pKa of the alkanolamines (Table 1). Type of series: physicochemical.

`OCCNCCO` [DEA, diethanolamine]: the Boiling point in the series “Boiling point (Table 1)” came to 268 ° F.

A word on the pKa: it is the pH at which an ionisable group is half protonated. Low values mean a stronger acid or weaker base, high ones a weaker acid or stronger base. In series [1], `NCCOCCO` [DGA, 2-aminoethoxyethanol] registered a pKa of 9.4. In the series “Boiling point (Table 1)”, this compound yielded a Boiling point of 221 ° F.

In “Boiling point (Table 1)”, `CN(C)C(CO)(CO)CO` [DMTA, 2-dimethylamino-2-hydroxymethyl-1,3-propanediol] yielded a Boiling point of 335 ° F.

The values are drawn from patent publication US10286356B2, “Process for the removal of acid gases from gaseous mixtures using an aqueous solution of 2-dimethylamino-2-hydroxymethyl-1, 3-propanediol” (Dow Global Technologies LLC, priority 2014, dated 2019).
